Assay results: patent publication US6784201B2, “Benzothiepines having activity as inhibitors of ileal bile acid transport and taurocholate uptake” (G.D. Searle & Company, priority 1994, dated 2004)
Where two headings read alike, the source gives them in different places.

Columns and labels:
[1] = system: Rabbit Ileal brush border membranes; assay: [3H]taurocholate uptake in rabbit brush border membrane vesicles (BBMV); format: biochemical; settings: read-out: TC-uptake (BBMV) IC(50)
Method: [^3H]Taurocholate Uptake in Rabbit Brush Border Membrane Vesicles (BBMV)
Rabbit Ileal brush border membranes were prepared from frozen iheal mucosa by the calcium precipitation method describe by Malathi et al. (Reference: (1979) Biochimica Biophysica Acta, 554, 259). The method for measuring taurocholate was essentially as described by Kramer et al. (Reference: (1992) Biochimica Biophysica Acta, 1111, 93) except the assay volume was 200 μl instead of 100 μl.

[2] = target: T1, human IBAT (Homo sapiens, UniProt Q12908); assay: In vitro assay of IBAT-mediated uptake of [14C]-taurocholate (TC) in H14 cells; format: cell-based
T1 construct: expressed in transfected cells; host or cells: Baby hamster kidney (BHK) cells, clone H14
T1 sequence (Q12908 1-348): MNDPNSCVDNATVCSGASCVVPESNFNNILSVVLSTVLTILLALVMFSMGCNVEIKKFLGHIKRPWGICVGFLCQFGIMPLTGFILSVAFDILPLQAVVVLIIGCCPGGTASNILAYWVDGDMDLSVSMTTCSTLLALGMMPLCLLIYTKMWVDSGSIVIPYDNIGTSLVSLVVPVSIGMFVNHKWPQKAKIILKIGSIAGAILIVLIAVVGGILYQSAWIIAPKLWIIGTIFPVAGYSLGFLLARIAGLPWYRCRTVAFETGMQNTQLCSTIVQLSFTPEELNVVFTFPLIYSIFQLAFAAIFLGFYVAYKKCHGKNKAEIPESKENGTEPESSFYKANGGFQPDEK
Summary of the method: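 BHK cells stably expressing human IBAT (H14) were incubated 2 h at 37° C with compound and 3 μM final [14C]-taurocholate in DMEM (4.5 g/L glucose) plus 0.2% fatty acid-free BSA. After cold PBS washes, cell-associated radioactivity was measured by scintillation counting.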

[3] = system: Hepatic HMG CoA-Reductase; assay: Hepatic HMG CoA-reductase activity, rat Alzet minipump model; format: in vivo; settings: 20 MPL/DAY, mean (SEM)
Method: Measurement of Hepatic HMG CoA-Reductase Activity (HMG COA)
Hepatic microsomes were prepared by homogenizing liver samples in a phosphate/sucrose buffer, followed by centrifugal separation. The final pelleted material was resuspended in buffer and an aliquot was assayed for HMG CoA reductase activity by incubating for 60 minutes at 37° C. in the presence of ^14C-HMG-CoA (Dupont-NEN). The reaction was stopped by adding 6N HCl followed by centrifugation. An aliquot of the supernatant was separated, by thin-layer chromatography, and the spot corresponding to the enzyme product was scraped off the plate, extracted and radioactivity was determined by scintillation counting. (Reference: Akerlund, J. and Bjorkhem, I. (1990) J. Lipid Res. 31, 2159).

[4] = system: Rat Ileal Uptake of [14C]-Taurocholate; assay: In vivo assay of rat ileal uptake of [14C]-taurocholate into bile (ileal loop)
Method: In Vivo Assay of Compounds that Inhibit Rat Ileal Uptake of [^14C]-Taurocholate into Bile
(See “Metabolism of 3α,7β-dihydroxy-7α-methyl-5β-cholanoic acid and 3α,7β-dihydroxy-7α-methyl-5β-cholanoic acid in hamsters” in Biochimica et Biophysica Acta 833 (1985) 196-202 by Une et al.)
Male wistar rats (200-300 g) are anesthetized with inactin @100 mg/kg. Bile ducts are cannulated with a 10″ length of PE10 tubing. The small intestine is exposed and laid out on a gauze pad. A canulae (⅛″ luer lock, tapered female adapter) is inserted at 12 cm from the junction of the small intestine and the cecum. A slit is cut at 4 cm from this same junction (utilizing a 8 cm length of ileum). 20 ml of warm Dulbecco's phosphate buffered saline, pH 6.5 (PBS) is used to flush out the intestine segment. The distal opening is cannulated with a 20 cm length of silicone tubing (0.02″ I.D.×0.037″ O.D.). The proximal cannulae is hooked up to a peristaltic pump and the intestine is washed for 20 min with warm PBS at 0.25 ml/min. Temperature of the gut segment is monitored continuously. At the start of the experiment, 2.0 ml of control sample ([^14C]-taurocholate @ 0.05 mi/ml with 5 mM cold taurocholate) is loaded into the gut segment with a 3 ml syringe and bile sample collection is begun. Control sample is infused at a rate of 0.25 ml/min for 21 min. Bile samples fractions are collected every 3 minute for the first 27 minutes of the procedure. After the 21 min of sample infusion, the ileal loop is washed out with 20 ml of warm PBS (using a 30 ml syringe), and then the loop is washed out for 21 min with warm PBS at 0.25 ml/min. A second perfusion is initiated as described above but this with test compound being administered as well (21 min administration followed by 21 min of wash out) and bile sampled every 3 min for the first 27 min. If necessary, a third perfusion is performed as above that typically contains the control sample.

[5] = system: Hepatic Cholesterol 7-α-Hydroxylase; assay: Hepatic cholesterol 7-α-hydroxylase activity, cholesterol-fed hamsters; format: in vivo, hamster; settings: 0.2% Cpd. No. 25, mean (SEM)
Method: Measurement of Hepatic Cholesterol 7-α-Hydroxylase Activity (7a-OHase)
Hepatic microsomes were prepared by homogenizing liver samples in a phosphate/sucrose buffer, followed by centrifugal separation. The final pelleted material was resuspended in buffer and an aliquot was assayed for cholesterol 7-α-hydroxylase activity by incubating for 5 minutes at 37° C. in the presence of NADPH. Following extraction into petroleum ether, the organic solvent was evaporated and the residue was dissolved in acetonitrile/methanol. The enzymatic product was separated by injecting an aliquot of the extract onto a C18 reversed phase HPLC column and quantitating the eluted material using UV detection at 240 nm. (Reference: Horton, J. D., et al. (1994) J. Clin. Invest. 93, 2084).

[6] = Efficacy in cholesterol-fed hamsters: body, liver and fecal weight; format: in vivo, hamster; settings: 0.2% Cpd. No. 25, mean (SEM)

IC50 [1]: 800 nM | IC50 ([2]; H14 cells, Table 5, read-out: IC50 uM (In vitro Taurocholate Cell Uptake)): 0.1 µM | IC50 ([2]; Table 6, read-out: TC-uptake (H14 cells) IC(50)): 0.1 µM | EC50 ([4]; rat ileal loop, read-out: TC-uptake Ileal Loop EC(50)): 20000 nM | LIVER WEIGHT (G) [6]: 5.8 (0.2) G | WEIGHT (G) day 1 [6]: 117 (5) G | WEIGHT (G) day 14 [6]: 132 (4) G
Compound: CCCC[C@]1(CC)CS(=O)(=O)c2cc(OC)ccc2[C@@H](c2ccccc2)[C@H]1O [Example 25, (3α,4β,5β) 3-Butyl-3-ethyl-4-hydroxy-8-methoxy-5-phenyl-2,3,4,5-tetrahydrobenzothiepine-1,1-dioxide]
HMG COA pm/mg/min [3]: 318.0 (40.7) *A, B pm/mg/min | activity at 100 µM ([4]; Rattus norvegicus, read-out: % of Control Transport of TC in Rat Ileum @ 0.1 mM): 26% | 7a-OHase (pm/mg/min.) [5]: 291.0 (6.0) *A pm/mg/min.
